The values below come from patent US5981517A, “Androstene derivatives” (priority 1997, dated 1999).

SMILES strings stand for the structures. Some results are limits rather than exact numbers.

One data set can be described thus: Stability in rat plasma. In kind it is in vitro ADME. Here is the method: (§1) A Waters NOVA-PAK phenyl column was connected to a Spectra-Physics component system consisting of a SP 8810 precision isocratic pump, a Rheodyne 7125 injector (injection volume 20 μL), an SP 8450 UV/VIS variable wavelength detector (operated at 254 nm) and a SP 4270 integrator. […]. The retention times of compound of the invention J and its metabolities L and M were 8.64, 2.70 and 2.45 minutes, respectively. The retention times of compound of the invention I and its metabolites N and 0 were 5.84, 2.70 and 1.81 minutes, respectively. The retention time of cortienic acid was 1.00 minute.
(§2) Freshly collected human or rat plasma was used. An aliquot of 10 mM test compound in ethanol solution was added to prewarmed (37° C.) plasma to yield a final concentration of 100 μM. At appropriate time intervals, samples (0.1 mL) were removed and mixed with 0.2 mL of 5% dimethylsulfoxide/acetonitrile solution. Mixtures were centrifuged and supernatants were analyzed by HPLC. The pseudo-first order rate constant of the disappearance of compound in the biological media was determined by linear regression analysis from the plot of log peak area and peak height versus time.
(§3) Stability was evaluated by the pseudo first-order rate constant (k, hr^-1) and half-life (t1/2, hr) of the disappearance of the test compound in the media.

The test system of data set [1] is forearm of a human volunteer. The experiment in a line: Further human vasoconstriction testing, Method 2. The data set is classed as in vivo. On the set-up: key: +: "positive" (pallor could be observed); -: "negative" (pallor could not be detected). How it is done: The mixtures, in 20 μL amounts, were applied to circular patches (1/4 inch diameter). The patches were applied to the forearm of a human volunteer, and covered with a water impervious film for 3 hr. Vasoconstriction activity was judged by the appearance of pallor at various time points after the patches were removed. Tests were performed on the same person and the results were obtained from 2-4 observations.
In TABLE XIV above, "-" means a negative result was obtained. In other tables herein, "-" means not tested.
In TABLE XIV above, the results of a simpler method of judging vasoconstriction activity was used in which only "positive" (pallor could be observed) or "negative" (pallor could not be detected) results were recorded.

A short description of data set [2]: Stability in human plasma. In kind it is in vitro ADME. How it is done: as §1, §2, §3
A further data set can be described thus: Stability in rat blood. Particulars: rat blood, 0.1 mM, 37° C.; read-out: Half-life (t1/2), Blood. In kind it is in vitro ADME. Here is the method: (§4) A Whatman C-18 column (4.6 mm×108 mm) was connected to a Spectra-Physics component system consisting of a SP 8810 precision isocratic pump, Rheodyne 7125 injector (20 μL injection volume), SP 8450 UV/VIS variable wavelength detector (230 nm), and SP 4290 integrator. The system was operated at ambient temperature. The mobile phase consisted of acetonitrile, acetic acid and water (60:0.1:40). At a flow rate of 1.0 mL/minute, the retention times for the test compounds were 4.74 minutes for Compound A, 5.84 minutes for Compound B, 6.93 minutes for Compound C, and 5.72 minutes for Compound D.
(§5) HPLC peak area and peak height were used as a measure of the concentration of the test compounds and plotted against time to evaluate the disappearance rates of the compounds. The stability was determined by measuring the pseudo-first order rate constant (kobs in min^-1) or half-life (t1/2 in min) of disappearance of the test compound in buffer. […].
(§6) A 0.2 mL aliquot of stock solution (1 mM) of each of the test compounds A, B, C, and D, was added to 2 mL of each biological media (whole heparinized rat blood, 20% rat liver homogenate, and 6-volume diluted lung homogenate in isotonic buffer of pH 7.40 made by combining 0.05 M of Na2 HPO4 and 0.05 M of NaH2 PO4 with 0.05 M of NaCl), which was kept in a 37° C. water bath, to obtain a final concentration of 0.1 mM in each biological medium. Samples of 0.1 mL were taken at appropriate time intervals for 2 hours (at 0, 3, 5, 10, 20, 40, 60, 90 and 120 minutes) and mixed with 0.2 mL of acetonitrile containing 5% DMSO. Each mixture was centrifuged and the supernatant was injected in the HPLC.

The nature of data set [3]: Stability in lung homogenate. In kind it is in vitro ADME. Particulars: rat; 6-volume diluted lung homogenate, 0.1 mM, 37° C.; read-out: Half-life (t1/2), Lung. How it is done:
as §4, §5, §6

For data set [4], the system named is forearm of a human volunteer. In words: Human vasoconstriction test. Particulars: 10 mM. The data set is classed as in vivo. On the set-up: key: 0 = normal skin, 4 = very intense pallor.
Data set [5] in a line: Stability in liver homogenate. In kind it is in vitro ADME, rat. Particulars: 20% rat liver homogenate, 0.1 mM, 37° C.; read-out: Half-life (t1/2), Liver. How it is done: as §4, §5, §6
Another data set in a line: physchem. The data set is classed as physicochemical. Here is the method:
as §4, §5
The stabilities of test compounds A, B, C, and D, were tested in buffer solutions in the pH range of 4.0 to 9.0. A 0.1 mL portion of each compound at a concentration of 1 mM was mixed with 10 mL phosphate buffer (made by combining 0.05 M of NaH2 PO4 and 0.05 M of Na2 HPO4 with 0.05 M of NaCl) to give a final concentration of 0.01 mM. The mixtures were incubated at 37° C., and samples were taken and injected in the HPLC system at appropriate time intervals. pH profiles of each test compound are shown in TABLE III below. […]

Turning to `CCOC(=O)[C@@]1(OC(=O)C(Cl)Cl)[C@H](C)C[C@H]2[C@@H]3CCC4=CC(=O)C=C[C@]4(C)[C@@]3(F)[C@@H](O)C[C@@]21C` [J, ethyl 17α-dichloroacetoxy-9α-fluoro-11β-hydroxy-16α-methylandrosta-1,4-dien-3-one-17β-carboxylate], the half-life at 100 µM is 40.7 h in “Stability in rat plasma” (rat, plasma) and 40.1 h in data set [2] (human, plasma). In addition, the Vasoconstriction activity entry was “-” in data set [1] (4 Hours, 0.01 mM); “-” in data set [1] (4 Hours, 0.05 mM); “-” in data set [1] (4 Hours, 0.1 mM); “-” in data set [1] (4 Hours, 0.5 mM); “+” in data set [1] (4 Hours, 1 mM); “+” in data set [1] (4 Hours, 5 mM). Further, the Vasoconstriction activity result is reported as “-” in data set [1] (8 Hours, 0.01 mM); “-” in data set [1] (8 Hours, 0.05 mM); “-” in data set [1] (8 Hours, 0.1 mM); “+” in data set [1] (8 Hours, 0.5 mM); “+” in data set [1] (8 Hours, 1 mM); “+” in data set [1] (8 Hours, 5 mM). In addition, the Vasoconstriction activity entry in data set [1] (10-22 hours, 0.01 mM) is reported as “-”; in data set [1] (10-22 hours, 0.05 mM), “-”; in data set [1] (10-22 hours, 0.1 mM), “-”; in data set [1] (10-22 hours, 0.5 mM) it was “+”; in data set [1] (10-22 hours, 1 mM), “+”; in data set [1] (10-22 hours, 5 mM), “+”. For the same compound, the Vasoconstriction activity entry was “-” in data set [1] (24 Hours, 0.01 mM); “-” in data set [1] (24 Hours, 0.05 mM); “-” in data set [1] (24 Hours, 0.1 mM); “+” in data set [1] (24 Hours, 0.5 mM); “+” in data set [1] (24 Hours, 1 mM); “+” in data set [1] (24 Hours, 5 mM).
Turning to `CCOC(=O)[C@@]1(OC(=O)C(Cl)Cl)CC[C@H]2[C@@H]3CCC4=CC(=O)C=C[C@]4(C)[C@H]3[C@@H](O)C[C@@]21C` [Compound B, Ethyl 17α-dichloroacetoxy-11β-hydroxyandrosta-1,4-dien-3-one-17β-carboxylate], the “k (pseudo first-order rate constant)” value is 0.136 h⁻¹ in the data set “Stability in rat plasma” (rat plasma, 100 μM, 37° C.) and 0.138 h⁻¹ in data set [2] (human plasma, 100 μM, 37° C.). In addition, the half-life at 100 µM in “Stability in rat plasma” (rat plasma, 100 μM, 37° C., read-out: t1/2 (converted)) is 5.08 h; in “Stability in rat blood”, 1.29 h; in data set [3] it was 2.29 h; in data set [5], 0.313 h; in data set [2] (human plasma, 100 μM, 37° C., read-out: t1/2 (converted)) it was 5.03 h. The Vasoconstriction activity in data set [4] (1 hour after patch removal) was found to be 3; in data set [4] (8 hours after patch removal) it was 4; in data set [4] (17 hours after patch removal) it was 4; in data set [4] (24 hours after patch removal), 4. The half-life in the data set “physchem” (aqueous phosphate buffer, pH 4.5) was more than 48 h; in “physchem” (aqueous phosphate buffer, pH 6.56), 16.7 h; in the data set “physchem” (aqueous phosphate buffer, pH 7.4), 5.08 h; in the data set “physchem” (aqueous phosphate buffer, pH 8.08), 0.867 h; in the data set “physchem” (aqueous phosphate buffer, pH 9), 0.144 h; in the data set “physchem” (buffer, pH 7.4) it was 5.08 h.
